# Experimental data reported in ChEMBL document CHEMBL3886684, “Azole compounds as PIM inhibitors” (2016).
# Biological target: Serine/threonine-protein kinase pim-2 (Homo sapiens, UniProt Q9P1W9)
# Experiment: The phosphorylation of biotinylated-BAD (S112) peptide by full length recombinant Pim-1, Pim-2, or Pim-3 protein was detected with streptavidin:Allophycocyanin (APC) conjugate and a europium (Eu) labeled antibody directed against phosphorylated-BAD (S112). […] A reference compound was included on each assay plate in order to validate that plate; on
# Chain of Serine/threonine-protein kinase pim-2 (Q9P1W9 whole entry): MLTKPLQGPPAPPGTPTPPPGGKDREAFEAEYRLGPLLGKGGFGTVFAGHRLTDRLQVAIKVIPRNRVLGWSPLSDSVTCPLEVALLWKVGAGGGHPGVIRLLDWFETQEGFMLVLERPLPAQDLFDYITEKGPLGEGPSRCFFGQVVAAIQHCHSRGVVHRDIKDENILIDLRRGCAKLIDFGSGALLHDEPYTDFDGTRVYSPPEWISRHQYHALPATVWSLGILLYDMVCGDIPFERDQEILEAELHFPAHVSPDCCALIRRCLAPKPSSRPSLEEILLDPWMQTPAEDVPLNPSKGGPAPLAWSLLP
smiles,measurement,value
CC(C)(C)Nc1nnc(-c2ccc3[nH]cc(C4=CCOCC4)c3c2)o1,IC50,738 nM
